pIC50, pKd: −log10 of the molar value.

These results are taken from patent US9284283B2, “Macrocyclic compounds for modulating IL-17” (ENSEMBLE THERAPEUTICS CORPORATION, priority 2012, dated 2016).

For one assay, the target named is T1, IL17A (Homo sapiens, UniProt Q16552).
T1 sequence (Q16552 24-155): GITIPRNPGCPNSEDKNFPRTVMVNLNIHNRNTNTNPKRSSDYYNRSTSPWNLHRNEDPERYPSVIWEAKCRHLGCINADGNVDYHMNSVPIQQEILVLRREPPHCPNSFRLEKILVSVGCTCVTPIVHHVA
Briefly: Surface Plasmon Resonance (SPR) analysis of compound interactions with IL17A. To be noted: SPR binding to IL17A. The method, then:
SPR analysis was carried out with a GE Healthcare (Piscataway, N.J.) Biacore X100 system. Typically, the chip (NTA Biacore Biosensor chip; GE Healthcare BR-1000-34) was first conditioned by injection of 0.35 M EDTA, which also served to remove any immobilized proteins from previous runs. Before immobilization of the recombinant 6-His-tagged IL17, the chip was washed with 0.5 mM nickel chloride in NTA buffer (10 mM HEPES buffer, 0.15 M sodium chloride, 10 μM ethylene diamine tetraacetic acid, 0.005% v/v surfactant P20 (GE Healthcare BR-1000-54)) to form a nickel chelate on the chip. IL17 protein was immobilized onto a NTA chip through its 6-His tag. IL17A was typically injected at 0.25 μM for 60-120 seconds, followed by a stabilization step washing with NTA+0.5% DMSO for 120 seconds or longer.
Five 2-fold or 3-fold serial dilutions of test compound were injected serially onto the chip. All steps were conducted using NTA buffer containing 0.5% v/v dimethylsulfoxide (DMSO). Compounds were diluted from stock solutions of 10 mM concentration in 100% DMSO with NTA buffer to obtain 50 μM solutions in NTA+0.5% DMSO. Subsequent 2× or 3× dilutions were made in NTA+0.5% DMSO. Compound was generally injected for 180 seconds followed by washing the chip in buffer alone for 120 seconds. The rate of refractive index change (RU units/time) and the maximum extend of RU change was measured during the “on” phase of analyte injection, followed by measuring the rate during the “off” phase.
Kinetic parameter fits were conducted using the Biacore SPR Evaluation Program (GE Healthcare) for 1:1 molecular binding fits, after subtracting the baseline average of 2 or more runs in which no analyte was injected. This program then reports the best fit average for the “on” rate (Ka), the “off” rate (Kd) and the dissociation constant (KD) (Chaiken, I et al., Anal Biochem 201, 197-210 (1992)). A separate program in the Biacore SPR Evaluation Program then calculates the best fit for Kd based upon the extent of binding alone (RU units bound) at each concentration of analyte and reports the best fit Kd by best fit to a Lineweaver-Burke plot. Typically, the Kd value calculated through both means agreed within a factor of three.
The presence and activity of IL17 on the NTA chip was routinely confirmed three ways: • 1) An increase in response units (RU) upon immobilization confirms that the IL17 was immobilized on the chip; • 2) Anti-IL17 was also injected on the chip to confirm the presence of IL17; and • 3) IL17R was injected onto the chip to confirm that the immobilized IL17 retained its binding activity for its receptor. Negative controls to access specificity for compound binding were conducted by immobilizing unrelated, but his-tagged, proteins (such as cyclophilin D) and conducting the same analysis as done with IL17A.
(SPR reads the build-up and loss of mass on a sensor chip optically.)

The test system of assay [1] is IL-17A induced secretion of IL-6 in primary human RASF cells. Nature of the assay: Inhibition of IL17A induced secretion of IL6 in human rheumatoid arthritis synovial fibroblast (RASF) cells. Type of assay: cell-based. To be noted: Homo sapiens, Fibroblast. Summed up: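 Primary RASF cells (passage 2-8) stimulated 20 h at 37 °C with rhIL-17A (30 ng/mL) pre-incubated 1 h with compound (final 0.03-25 μM, 0.25% DMSO). Supernatant IL-6 measured by ELISA, normalized to WST1 viability; triplicates.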

Assay [2] has as its target T2, biotinylated human IL-17 (binding to IL17R/Fc) (Homo sapiens, UniProt Q16552).
T2 construct: purchased R&D Systems 317-ILB (IL-17, biotinylated); 177-IR (IL17R/Fc)
T2 sequence (Q16552 20-155 limits assumed): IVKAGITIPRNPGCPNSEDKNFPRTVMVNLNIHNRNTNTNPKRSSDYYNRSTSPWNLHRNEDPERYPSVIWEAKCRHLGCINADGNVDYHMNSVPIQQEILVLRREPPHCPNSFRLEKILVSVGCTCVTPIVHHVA
Nature of the assay: IL-17 competition ELISA II (captured IL17R/Fc, biotinylated IL-17). Summed up:
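Competition read-out: absorbance at 450 nm after streptavidin-HRP/TMB detection, fitted to a 4-parameter logistic model bounded by no-competitor and blank wells to give IC50. Compound was serially diluted 5-fold from 1 μM alongside 20 nM (stock) biotinylated IL-17 on IL17R/Fc (10 nM) captured via goat anti-human IgG, 30 min at room temperature.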
A general note: ELISA stands for enzyme-linked immunosorbent assay.

The target in assay [3] is T3, recombinant human IL17a (binding to its receptor IL17R) (Homo sapiens, UniProt Q16552).
T3 construct: purchased R&D Systems 317-ILB (IL17a); 177-IR (IL17R/Fc)
T3 sequence (Q16552 20-155 limits assumed): T2 sequence (Q16552 20-155 limits assumed)
Nature of the assay: IL-17 competition ELISA I (IL17a coated, IL17R/Fc binding). Summed up: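 Plates coated with 20 nM recombinant human IL17a received compound dilutions and 12 nM IL17R/Fc (final) for 30 min at room temperature. Bound receptor was detected with HRP anti-human Fc and TMB, read at 450 nm. IC50 came from a 4-parameter logistic fit between no-competitor and blank controls.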

As usually defined, the pKd is −log10 of the Kd, conventionally taken in molar units. Read a low pKd as a large Kd. Regarding `O=C1CNC(=O)[C@@H](Cc2ccc(NC(=O)[C@H](Cc3ccccc3Cl)NC(=O)Cc3ccccc3)cc2)NC(=O)CC2(CCCC2)CC(=O)NCCCCN1` [Compound 162], on IL17A, the pKd is above 7.00.
Take `O=C1CCCNC(=O)[C@@H](Cc2ccc(NC(=O)[C@H](Cc3ccccc3Cl)NC(=O)Cc3ccccc3)cc2)NC(=O)CC2(CCCC2)CC(=O)NCCCCN1` [Compound 166]: at IL17A, the pKd was above 7.00.
The same measure, in the same setting: as for `CC1(C)NC(=O)[C@@H](Cc2ccc(NC(=O)[C@H](Cc3ccccc3Cl)NC(=O)Cc3ccccc3)cc2)NC(=O)CC2(CCCC2)CC(=O)N[C@@H](C(=O)O)CCCCNC1=O` [Compound 182], the figure is 6.00 to 7.00; as for `COC(=O)[C@H]1CCCCNC(=O)CCCNC(=O)[C@@H](Cc2ccc(NC(=O)[C@H](Cc3ccccc3)NC(=O)Cc3ccccc3)cc2)NC(=O)CC2(CCCC2)CC(=O)N1` [Compound 138], 6.00 to 7.00; as for `COC(=O)[C@@H]1Cc2ccc(cc2)NC(=O)CCCNC(=O)[C@@H](Cc2ccc(NC(=O)[C@H](Cc3ccccc3F)NC(=O)Cc3ccccc3)cc2)NC(=O)CC2(CCCC2)CC(=O)N1` [Compound 135], 6.00 to 7.00.
On the same count and under the same terms, to `CC(=O)N[C@@H](Cc1ccccc1Cl)C(=O)Nc1ccc(C[C@H]2NC(=O)CC3(CCCC3)CC(=O)NCCCCCNC(=O)CCCNC2=O)cc1` [Compound 155] belongs above 7.00.
Take `O=C1CCCNC(=O)[C@@H](Cc2ccc(NC(=O)[C@H](Cc3ccc(-c4ccccc4)cc3)NC(=O)c3ccccc3)cc2)NC(=O)CC2(CCCC2)CC(=O)N[C@H](C(=O)O)CCCCN1` [Compound 178]: the pKd at IL17A was 6.00 to 7.00.
Still for that read-out and setting: to `COC(=O)[C@H]1CCCCNC(=O)[C@H](CO)NC(=O)[C@@H](Cc2ccc(NC(=O)[C@H](Cc3ccccc3Cl)NC(=O)c3ccccc3)cc2)NC(=O)CC2(CCCC2)CC(=O)N1` [Compound 148] belongs 6.00 to 7.00.
For `COC(=O)[C@H]1CCCCNC(=O)CCCNC(=O)[C@@H](Cc2ccc(NC(=O)[C@H](Cc3ccccc3)NC(=O)c3ccccc3)cc2)NC(=O)CC2(CCCC2)CC(=O)N1` [Compound 139], the pKd at IL17A is 6.00 to 7.00.
The compound `O=C1CNC(=O)[C@@H](Cc2ccc(NC(=O)[C@H](Cc3c(F)cccc3F)NC(=O)Cc3ccc(O)cc3)cc2)NC(=O)CC2(CCCC2)CC(=O)NCCCCCN1` [Compound 190] showed a pKd at IL17A of 6.00 to 7.00.
Still for that read-out and setting: to `COC(=O)[C@@H]1CCCCNC(=O)CCCNC(=O)[C@@H](Cc2ccc(NC(=O)[C@H](Cc3cccc(F)c3)NC(=O)Cc3ccccc3)cc2)NC(=O)CC2(CCCC2)CC(=O)N1` [Compound 116] belongs 6.00 to 7.00.
As to `O=C1CNC(=O)[C@@H](Cc2ccc(NC(=O)[C@H](Cc3ccccc3Cl)NC(=O)c3ccc(O)cc3)cc2)NC(=O)CC2(CCCC2)CC(=O)NCCCCCN1` [Compound 215], the pKd on IL17A is above 7.00.
`COC(=O)[C@H]1CCCCNC(=O)[C@H](CO)NC(=O)[C@@H](Cc2ccc(NC(=O)[C@H](Cc3ccccc3Cl)NC(=O)Cc3ccccc3)cc2)NC(=O)CC2(CCCC2)CC(=O)N1` [Compound 147] gave a pKd at IL17A of 6.00 to 7.00.
On IL17A, `O=C1CCCNC(=O)[C@H](Cc2ccc(NC(=O)[C@H](Cc3ccccc3F)NC(=O)Cc3ccccc3)cc2)NC(=O)CC2(CCCC2)CC(=O)N[C@H](C(=O)O)CCCCN1` [Compound 174] had a pKd of 6.00 to 7.00.
As to `COC(=O)[C@@H]1CCCCNC(=O)CCCCCNC(=O)[C@@H](Cc2ccc(NC(=O)[C@H](Cc3ccccc3F)NC(=O)Cc3ccccc3)cc2)NC(=O)CC2(CCCC2)CC(=O)N1` [Compound 111], the pKd at IL17A is 6.00 to 7.00.
On the same count and under the same terms, as for `COC(=O)[C@@H]1CCCCNC(=O)CCCNC(=O)[C@@H](Cc2ccc(NC(=O)[C@H](Cc3ccc(-c4ccccc4)cc3)NC(=O)Cc3ccccc3)cc2)NC(=O)CC2(CCCC2)CC(=O)N1` [Compound 124], the figure is 6.00 to 7.00; as for `O=C1CCCNC(=O)[C@@H](Cc2ccc(NC(=O)[C@H](Cc3ccccc3F)NC(=O)Cc3ccccc3)cc2)NC(=O)CC2(CCCC2)CC(=O)N[C@@H](C(=O)O)CCCCN1` [Compound 176], 6.00 to 7.00; as for `CC(=O)N[C@@H](Cc1ccccc1Cl)C(=O)Nc1ccc(C[C@H]2NC(=O)CC3(CCCC3)CC(=O)N(CCO)CCCCCNC(=O)CCNC2=O)cc1` [Compound 171], above 7.00.
Same read-out and setting: as for `O=C1CCCNC(=O)[C@H](Cc2ccc(NC(=O)[C@H](Cc3ccccc3F)NC(=O)Cc3ccccc3)cc2)NC(=O)CC2(CCCC2)CC(=O)N[C@@H](C(=O)O)CCCCN1` [Compound 103], the figure is below 5.00; as for `COC(=O)[C@H]1CCCCNC(=O)CCCNC(=O)[C@H](Cc2ccc(NC(=O)[C@H](Cc3ccccc3)NC(=O)Cc3ccccc3)cc2)NC(=O)CC2(CCCC2)CC(=O)N1` [Compound 104], 5.00 to 6.00.
One may read the pIC50 as −log10 of the IC50, conventionally taken in molar units. Turning to `O=C1CNC(=O)[C@@H](Cc2ccc(NC(=O)[C@H](CC3CCC3)NC(=O)Cc3ccccc3)cc2)NC(=O)CC2(CCCC2)CC(=O)NCCCCCN1` [Compound 246], the pIC50 in assay [1] was below 5.00; in assay [2], above 7.00; in assay [3], above 7.00.
For the compound `O=C1CNC(=O)[C@@H](Cc2ccc(NC(=O)[C@@H](NC(=O)Cc3ccccc3)C3CCCCC3)cc2)NC(=O)CC2(CCCC2)CC(=O)N[C@H](C(=O)O)CCCCN1` [Compound 316], the pIC50 in assay [1] was 6.00 to 7.00; in assay [2], above 7.00; in assay [3], above 7.00.
For the compound `O=C1CNC(=O)[C@@H](Cc2ccc(NC(=O)[C@H](Cc3ccccc3Cl)NC(=O)Cc3ccc(F)cc3)cc2)NC(=O)CC2(CCCC2)CC(=O)NCCCCCN1` [Compound 305], the negative logarithm of the IC50 (pIC50) in assay [1] was 6.00 to 7.00; in assay [2] it was above 7.00; in assay [3] it was above 7.00.
With `O=C1CNC(=O)[C@@H](Cc2ccc(NC(=O)[C@H](Cc3ccccc3Cl)NC(=O)Cc3ccc(CO)cc3)cc2)NC(=O)CC2(CCCC2)CC(=O)NCCCCCN1` [Compound 218], the negative-log IC50 (pIC50) in assay [1], in assay [2] and in assay [3] was above 7.00 in each case.
As to `O=C1CC2(CCCC2)CC(=O)N[C@H](Cc2ccc(NC(=O)[C@H](Cc3ccccc3Cl)NC(=O)Cc3ccccc3)cc2)C(=O)NCC(=O)N[C@H](C(=O)O)CCCCN1` [Compound 339], the pIC50 is 6.00 to 7.00 in assay [1], above 7.00 in assay [2] and above 7.00 in assay [3].
With `C[C@H]1NC(=O)[C@@H](Cc2ccc(NC(=O)[C@H](Cc3ccccc3Cl)NC(=O)c3cccnc3)cc2)NC(=O)CC2(CCCC2)CC(=O)N[C@H](C(=O)O)CCCCNC1=O` [Compound 368], the figures for the pIC50 in assay [1], in assay [2] and in assay [3] were 6.00 to 7.00, above 7.00 and 6.00 to 7.00, respectively.
Regarding `C[C@H]1NC(=O)[C@@H](Cc2ccc(NC(=O)[C@H](Cc3ccccc3Cl)NC(=O)c3cccnc3)cc2)NC(=O)CC2(CCCC2)CC(=O)NCCCCCNC1=O` [Compound 353], the pIC50 in assay [1] is 5.00 to 6.00; in assay [2], above 7.00; in assay [3], 6.00 to 7.00.
Taken in the same sequence, the figures for `O=C1CNC(=O)[C@@H](Cc2ccc(NC(=O)[C@H](Cc3ccccc3Cl)NC(=O)c3cccnc3)cc2)NC(=O)CC2(CCCC2)CC(=O)N[C@H](C(=O)O)CCCCN1` [Compound 266] were 6.00 to 7.00, above 7.00 and above 7.00.
